Test results published in ChEMBL document CHEMBL4308841, “Synthesis, in vitro antiproliferative activity, and kinase inhibitory effects of pyrazole-containing diarylureas and diarylamides” (Eur J Med Chem, 2018).

Experiments:
MOLT-4 = test: Growth inhibition of human MOLT4 cells incubated for 48 hrs by sulforhodamine B assay; type: functional, cell-based; conditions: MOLT-4, 48 h
SF-268 [1] = test: Growth inhibition of human SF268 cells incubated for 48 hrs by sulforhodamine B assay; type: functional, cell-based; conditions: SF-268, 48 h
SNB-75 = test: Growth inhibition of human SNB75 cells assessed as cell growth at 0.01 uM incubated for 48 hrs by sulforhodamine B assay relative to control; type: functional; conditions: SNB-75, 48 h, read-out: Activity
RXF 393 = test: Growth inhibition of human RXF393 cells assessed as cell growth at 1 uM incubated for 48 hrs by sulforhodamine B assay relative to control; type: functional; conditions: RXF 393, 48 h, read-out: Activity
SK-OV-3 = test: Growth inhibition of human SKOV3 cells assessed as cell growth at 1 uM incubated for 48 hrs by sulforhodamine B assay relative to control; type: functional; conditions: SK-OV-3, 48 h, read-out: Activity
U-251 = test: Growth inhibition of human U251 cells assessed as cell growth at 0.01 uM incubated for 48 hrs by sulforhodamine B assay relative to control; type: functional; conditions: U-251, 48 h, read-out: Activity
SF-268 [2] = test: Growth inhibition of human SF268 cells assessed as cell growth at 1 uM incubated for 48 hrs by sulforhodamine B assay relative to control; type: functional; conditions: SF-268, 48 h, read-out: Activity
RPMI-8226 = test: Growth inhibition of human RPMI8226 cells assessed as cell growth at 1 uM incubated for 48 hrs by sulforhodamine B assay relative to control; type: functional; conditions: RPMI-8226, 48 h, read-out: Activity
Hs-578T [3] = test: Growth inhibition of human Hs578T cells assessed as cell growth at 0.01 uM incubated for 48 hrs by sulforhodamine B assay relative to control; type: functional; conditions: read-out: Activity
HOP-62 = test: Growth inhibition of human HOP62 cells assessed as cell growth at 1 uM incubated for 48 hrs by sulforhodamine B assay relative to control; type: functional; conditions: HOP-62, 48 h, read-out: Activity
A549 [4] = test: Growth inhibition of human A549/ATCC cells assessed as cell growth at 0.1 uM incubated for 48 hrs by sulforhodamine B assay relative to control; type: functional; conditions: A549, 48 h, read-out: Activity
A549 [5] = test: Growth inhibition of human A549/ATCC cells assessed as cell growth at 100 uM incubated for 48 hrs by sulforhodamine B assay relative to control; type: functional; conditions: A549, 48 h, read-out: Activity
CCRF-CEM = test: Growth inhibition of human CCRF-CEM cells assessed as cell growth at 1 uM incubated for 48 hrs by sulforhodamine B assay relative to control; type: functional; conditions: read-out: Activity
Hs-578T [6] = test: Growth inhibition of human Hs578T cells incubated for 48 hrs by sulforhodamine B assay; type: functional, cell-based
K562 = test: Growth inhibition of human K562 cells assessed as cell growth at 0.1 uM incubated for 48 hrs by sulforhodamine B assay relative to control; type: functional; conditions: K562, 48 h, read-out: Activity
COLO 205 = test: Growth inhibition of human COLO205 cells assessed as cell growth at 0.01 uM incubated for 48 hrs by sulforhodamine B assay relative to control; type: functional; conditions: COLO 205, 48 h, read-out: Activity
SNB-19 = test: Growth inhibition of human SNB19 cells assessed as cell growth at 100 uM incubated for 48 hrs by sulforhodamine B assay relative to control; type: functional; conditions: SNB-19, 48 h, read-out: Activity
OVCAR-8 = test: Growth inhibition of human OVCAR8 cells assessed as cell growth at 1 uM incubated for 48 hrs by sulforhodamine B assay relative to control; type: functional; conditions: OVCAR-8, 48 h, read-out: Activity
UACC-257 = test: Growth inhibition of human UACC257 cells assessed as cell growth at 1 uM incubated for 48 hrs by sulforhodamine B assay relative to control; type: functional; conditions: UACC-257, 48 h, read-out: Activity
NCI-H23 = test: Growth inhibition of human NCI-H23 cells assessed as cell growth at 0.1 uM incubated for 48 hrs by sulforhodamine B assay relative to control; type: functional; conditions: NCI-H23, 48 h, read-out: Activity
Hs-578T [7] = test: Growth inhibition of human Hs578T cells assessed as cell growth at 100 uM incubated for 48 hrs by sulforhodamine B assay relative to control; type: functional; conditions: read-out: Activity
HT-29 = test: Growth inhibition of human HT-29 cells incubated for 48 hrs by sulforhodamine B assay; type: functional, cell-based; conditions: HT-29, 48 h
HL-60(TB) = test: Growth inhibition of human HL-60(TB) cells incubated for 48 hrs by sulforhodamine B assay; type: functional, cell-based; conditions: HL-60, 48 h
A498 = test: Growth inhibition of human A498 cells assessed as cell growth at 1 uM incubated for 48 hrs by sulforhodamine B assay relative to control; type: functional; conditions: A498, 48 h, read-out: Activity
SK-MEL-2 = test: Growth inhibition of human SK-MEL-2 cells incubated for 48 hrs by sulforhodamine B assay; type: functional, cell-based; conditions: SK-MEL-2, 48 h
MDA-MB-435 = test: Growth inhibition of human MDA-MB-435 cells incubated for 48 hrs by sulforhodamine B assay; type: functional, cell-based; conditions: MDA-MB-435, 48 h
NCI-H226 = test: Growth inhibition of human NCI-H226 cells incubated for 48 hrs by sulforhodamine B assay; type: functional, cell-based; conditions: NCI-H226, 48 h
[8] = read-out: LC50 (the source's name)
[9] = read-out: pLC50 (the source's name) (converted)

O=C(Nc1cccc(-n2cc(-c3ccncc3)c(-c3cc(O)cc(Cl)c3)n2)c1)Nc1ccc(Cl)c(Cl)c1
GI50 (MOLT-4; read-out: GI50): 1.43 µM | CC50 (MOLT-4; [8]): > 100 µM | TGI (MOLT-4; read-out: TGI): 51.8 µM | GI50 (MOLT-4; read-out: pGI50 (converted)): 1.41 µM | CC50 (MOLT-4; [9]): > 100 µM | TGI (MOLT-4; read-out: pTGI (converted)): 5.13 µM | GI50 (SF-268 [1]; read-out: GI50): 3.22 µM | CC50 (SF-268 [1]; [8]): > 100 µM | TGI (SF-268 [1]; read-out: TGI): 32.6 µM | GI50 (SF-268 [1]; read-out: pGI50 (converted)): 3.24 µM | CC50 (SF-268 [1]; [9]): > 100 µM | TGI (SF-268 [1]; read-out: pTGI (converted)): 33.1 µM | growth at 0.01 µM (SNB-75): 94% | growth at 1 µM (RXF 393): 38% | growth at 1 µM (SK-OV-3): 110% | growth at 0.01 µM (U-251): 96% | growth at 1 µM (SF-268 [2]): 89% | growth at 1 µM (RPMI-8226): 57% | growth at 0.01 µM (Hs-578T [3]): 98% | growth at 1 µM (HOP-62): 97% | growth at 0.1 µM (A549 [4]): 99% | growth at 100 µM (A549 [5]): -32% | growth at 1 µM (CCRF-CEM): 76% | GI50 (Hs-578T [6]; read-out: GI50): 3.23 µM | CC50 (Hs-578T [6]; [8]): > 100 µM | TGI (Hs-578T [6]; read-out: TGI): > 100 µM | GI50 (Hs-578T [6]; read-out: pGI50 (converted)): 3.24 µM | CC50 (Hs-578T [6]; [9]): > 100 µM | TGI (Hs-578T [6]; read-out: pTGI (converted)): > 100 µM | growth at 0.1 µM (K562): 100% | growth at 0.01 µM (COLO 205): 106% | growth at 100 µM (SNB-19): -26% | growth at 1 µM (OVCAR-8): 56% | growth at 1 µM (UACC-257): 92% | growth at 0.1 µM (NCI-H23): 97% | growth at 100 µM (Hs-578T [7]): 9% | GI50 (HT-29; read-out: GI50): 1.92 µM | CC50 (HT-29; [8]): 7.9 µM | TGI (HT-29; read-out: TGI): 39 µM | GI50 (HT-29; read-out: pGI50 (converted)): 1.91 µM | CC50 (HT-29; [9]): 7.94 µM | TGI (HT-29; read-out: pTGI (converted)): 3.89 µM | GI50 (HL-60(TB); read-out: GI50): 3.02 µM | LC50 (HL-60(TB); read-out: LC50): > 100 µM | GI50 (HL-60(TB); read-out: pGI50 (converted)): 3.02 µM | LC50 (HL-60(TB); read-out: pLC50 (converted)): > 100 µM | growth at 1 µM (A498): 75% | GI50 (SK-MEL-2; read-out: GI50): 1.3 µM | CC50 (SK-MEL-2; [8]): 9.1 µM | TGI (SK-MEL-2; read-out: TGI): 40.4 µM | GI50 (SK-MEL-2; read-out: pGI50 (converted)): 1.78 µM | CC50 (SK-MEL-2; [9]): 9.12 µM | TGI (SK-MEL-2; read-out: pTGI (converted)): 4.07 µM | GI50 (MDA-MB-435; read-out: GI50): 1.5 µM | TGI (MDA-MB-435; read-out: TGI): 35.8 µM | GI50 (MDA-MB-435; read-out: pGI50 (converted)): 1.58 µM | TGI (MDA-MB-435; read-out: pTGI (converted)): 3.55 µM | GI50 (NCI-H226; read-out: GI50): 2.28 µM | LC50 (NCI-H226; read-out: LC50): > 100 µM | TGI (NCI-H226; read-out: TGI): 71.6 µM | GI50 (NCI-H226; read-out: pGI50 (converted)): 2.29 µM | LC50 (NCI-H226; read-out: pLC50 (converted)): > 100 µM | TGI (NCI-H226; read-out: pTGI (converted)): 7.08 µM
